Data as given in patent US11963995B2, “Methods comprising desmopressin” (Ferring B.V., priority 2008, dated 2024).

Legend:
[1] = system: adult patients with nocturia; test: Change in urine volume (nocturnal, total) from baseline to Day 28 (Part I); type: in vivo, human; conditions: females over 65 years of age; 100 ug dose; ITT, Part I
Experimental: As used herein, the term “nocturnal urine” refers to the total urine volume from 5 minutes after bedtime until rising in the morning, including the first void within 30 minutes of rising.
(§1) All treatments were administered orally once per night approximately 1 hour prior to bedtime; subjects were instructed to limit their fluid intake prior to drug self-administration. […] Randomization was to be stratified by age (<65, ≥65 years) and by the absence/presence of nocturnal polyuria, defined as a ratio of nighttime urine volume/24-hour urine volume 33%. To achieve the desired number of subjects within each stratum, enrollment of subjects in a particular stratum (age and/or presence/absence of nocturnal polyuria) could be halted. If this was necessary, all investigative sites were to be informed in writing at least 1 week in advance to stop screening in a population of subjects.
Changes in urine volume from baseline to the end of Day 28 were also assessed and included herein.
(§2) Missing values concerning number of nocturnal voids at Day 8, Day 15, Day 22, and Day 28 in Part I were imputed using last observation carried forward (LOCF). Missing values concerning sleep disturbance and urine volume (for average 24-hour urine volume and average nocturnal urine volume) were not imputed.

[2] = system: adult patients with nocturia; test: Duration of initial period of undisturbed sleep, change from baseline to Day 28 (Part I); type: in vivo, human; conditions: for Change from baseline to final visit (Day 28) in duration of initial period of undisturbed sleep, mean / Change from baseline to final visit (Day 28) in duration of initial period of undisturbed sleep, median: ITT, Part I; for median increase in initial period of sleep: baseline to Day 28
Experimental: As used herein, the term “first sleep period” refers to the time elapsed from bedtime to either first void or morning arising.
as §1
The secondary efficacy endpoints were: (1) durability of effect achieved in Part I; (2) change in initial period of undisturbed sleep, defined as the elapsed time in minutes from going to bed with the intention of sleeping to the time of awakening for the first nocturnal void; and (3) change in duration of total sleep time. Additional secondary endpoints were collected, e.g., change in nocturia-specific quality of life as assessed by scores on the International Consultation on Incontinence Modular Questionnaire—Noctuira and the Noctuira Quality of Life Questionnaire, change in quality of sleep as assessed by the global score of the Pittsburgh Sleep Quality Index, and change in overall quality of life as assessed by the short form—12v2. A description of the additional secondary efficacy endpoints and their accompanying data are not provided herein.
as §2

[3] = relative to vasopressin; cited from earlier work
[4] = 10 ug, all males with monitoring
[5] = 10 ug, females over 50 years of age
[6] = 10 ug, females over 65 years of age
[7] = 25 ug, all males with monitoring
[8] = 25 ug, females over 50 years of age
[9] = 25 ug, females over 65 years of age
[10] = 50 ug, all males with monitoring
[11] = 50 ug, females over 50 years of age
[12] = 50 ug, females over 65 years of age
[13] = 100 ug, all males with monitoring
[14] = 100 ug, females over 50 years of age
[15] = 100 ug, females over 65 years of age

## NC(=O)CC[C@@H]1NC(=O)[C@H](Cc2ccccc2)NC(=O)[C@H](Cc2ccc(O)cc2)NC(=O)CCSSC[C@@H](C(=O)N2CCC[C@H]2C(=O)N[C@H](CCCN=C(N)N)C(=O)NCC(N)=O)NC(=O)[C@H](CC(N)=O)NC1=O [desmopressin]
[1]
  Change from baseline to final visit (Day 28) of nocturnal urine volume, mean: -323 mL
  Change from baseline to final visit (Day 28) of nocturnal urine volume, median: -285 mL
[2]; 10 ug, all females
  Change from baseline to final visit (Day 28) in duration of initial period of undisturbed sleep, mean: 54 min
  Change from baseline to final visit (Day 28) in duration of initial period of undisturbed sleep, median: 46 min
[2]; 10 ug, all groups
  Change from baseline to final visit (Day 28) in duration of initial period of undisturbed sleep, mean: 51 min
  Change from baseline to final visit (Day 28) in duration of initial period of undisturbed sleep, median: 51 min
[2]; [4]
  Change from baseline to final visit (Day 28) in duration of initial period of undisturbed sleep, mean: 54 min
  Change from baseline to final visit (Day 28) in duration of initial period of undisturbed sleep, median: 59 min
[2]; 10 ug, all males
  Change from baseline to final visit (Day 28) in duration of initial period of undisturbed sleep, mean: 48 min
  Change from baseline to final visit (Day 28) in duration of initial period of undisturbed sleep, median: 56 min
[2]; [5]
  Change from baseline to final visit (Day 28) in duration of initial period of undisturbed sleep, mean: 33 min
  Change from baseline to final visit (Day 28) in duration of initial period of undisturbed sleep, median: 27 min
[2]; [6]
  Change from baseline to final visit (Day 28) in duration of initial period of undisturbed sleep, mean: 18 min
  Change from baseline to final visit (Day 28) in duration of initial period of undisturbed sleep, median: 46 min
[2]; 25 ug, all females
  Change from baseline to final visit (Day 28) in duration of initial period of undisturbed sleep, mean: 113 min
  Change from baseline to final visit (Day 28) in duration of initial period of undisturbed sleep, median: 95 min
[2]; 25 ug, all groups
  Change from baseline to final visit (Day 28) in duration of initial period of undisturbed sleep, mean: 83 min
  Change from baseline to final visit (Day 28) in duration of initial period of undisturbed sleep, median: 62 min
[2]; [7]
  Change from baseline to final visit (Day 28) in duration of initial period of undisturbed sleep, mean: 57 min
  Change from baseline to final visit (Day 28) in duration of initial period of undisturbed sleep, median: 54 min
[2]; 25 ug, all males
  Change from baseline to final visit (Day 28) in duration of initial period of undisturbed sleep, mean: 61 min
  Change from baseline to final visit (Day 28) in duration of initial period of undisturbed sleep, median: 55 min
[2]; 25 μg
  median increase in initial period of sleep: approximately 1 hour
[2]; [8]
  Change from baseline to final visit (Day 28) in duration of initial period of undisturbed sleep, mean: 122 min
  Change from baseline to final visit (Day 28) in duration of initial period of undisturbed sleep, median: 96 min
[2]; [9]
  Change from baseline to final visit (Day 28) in duration of initial period of undisturbed sleep, mean: 131 min
  Change from baseline to final visit (Day 28) in duration of initial period of undisturbed sleep, median: 113 min
[2]; 50 ug, all females
  Change from baseline to final visit (Day 28) in duration of initial period of undisturbed sleep, mean: 98 min
  Change from baseline to final visit (Day 28) in duration of initial period of undisturbed sleep, median: 70 min
[2]; 50 ug, all groups
  Change from baseline to final visit (Day 28) in duration of initial period of undisturbed sleep, mean: 85 min
  Change from baseline to final visit (Day 28) in duration of initial period of undisturbed sleep, median: 63 min
[2]; [10]
  Change from baseline to final visit (Day 28) in duration of initial period of undisturbed sleep, mean: 64 min
  Change from baseline to final visit (Day 28) in duration of initial period of undisturbed sleep, median: 59 min
[2]; 50 ug, all males
  Change from baseline to final visit (Day 28) in duration of initial period of undisturbed sleep, mean: 72 min
  Change from baseline to final visit (Day 28) in duration of initial period of undisturbed sleep, median: 55 min
[2]; 50 μg
  median increase in initial period of sleep: approximately 1 hour
[2]; [11]
  Change from baseline to final visit (Day 28) in duration of initial period of undisturbed sleep, mean: 83 min
  Change from baseline to final visit (Day 28) in duration of initial period of undisturbed sleep, median: 63 min
[2]; [12]
  Change from baseline to final visit (Day 28) in duration of initial period of undisturbed sleep, mean: 42 min
  Change from baseline to final visit (Day 28) in duration of initial period of undisturbed sleep, median: 30 min
[2]; 100 ug, all females
  Change from baseline to final visit (Day 28) in duration of initial period of undisturbed sleep, mean: 114 min
  Change from baseline to final visit (Day 28) in duration of initial period of undisturbed sleep, median: 93 min
[2]; 100 ug, all groups
  Change from baseline to final visit (Day 28) in duration of initial period of undisturbed sleep, mean: 107 min
  Change from baseline to final visit (Day 28) in duration of initial period of undisturbed sleep, median: 96 min
[2]; [13]
  Change from baseline to final visit (Day 28) in duration of initial period of undisturbed sleep, mean: 108 min
  Change from baseline to final visit (Day 28) in duration of initial period of undisturbed sleep, median: 116 min
[2]; 100 ug, all males
  Change from baseline to final visit (Day 28) in duration of initial period of undisturbed sleep, mean: 100 min
  Change from baseline to final visit (Day 28) in duration of initial period of undisturbed sleep, median: 101 min
[2]; [14]
  Change from baseline to final visit (Day 28) in duration of initial period of undisturbed sleep, mean: 108 min
  Change from baseline to final visit (Day 28) in duration of initial period of undisturbed sleep, median: 89 min
[2]; [15]
  Change from baseline to final visit (Day 28) in duration of initial period of undisturbed sleep, mean: 81 min
  Change from baseline to final visit (Day 28) in duration of initial period of undisturbed sleep, median: 70 min
[3]
  antidiuretic-to-vasopressor ratio, greater than vasopressin: 3000 fold
